These results are taken from PMC6884555, “Simultaneous measurement of p53:Mdm2 and p53:Mdm4 protein-protein interactions in whole cells using fluorescence labelled foci” (Scientific Reports, 2019).

Data set [1] relates to CHO-K1 cells. Put plainly: LDH release assay (CytoTox). Type of data set: cell-based, Chinese hamster. To be noted: Cricetulus griseus. In general terms: Release of lactate dehydrogenase indicates damage to the cell membrane.
The target of data set [2] is T1, Mdm4:p53 (Homo sapiens, UniProt O15151).
T1 construct: the p53 (1–70) and Mdm4 (1–112) PPI was then cloned and fused to the FP and ASH tags
T1 sequence (O15151 1-112): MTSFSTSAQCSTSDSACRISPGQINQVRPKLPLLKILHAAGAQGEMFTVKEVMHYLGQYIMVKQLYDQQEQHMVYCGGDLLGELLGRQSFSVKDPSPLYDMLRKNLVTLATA
Put plainly: Bimodal FLUOPPI Mdm4:p53 PPI assay (pre-mixed stably transfected CHO-K1 cells, high-content imaging). Format: cell-based. To be noted: bimodal system; both treatment time points.
Procedure: Separate CHO-K1 lines stably expressing either Ash-p53:AG-Mdm2 or Ash-p53:MR-Mdm4 Fluoppi PPI pairs were established and maintained independently. To enable bimodal measurement both cell lines were pre-mixed in equal proportions and then used to seed 96 well plates for compound analysis. […] Plates were incubated overnight and cells were treated with PPI modulating drugs. […] Cells were also processed using a nuclear morphology filter. […] A minimum number of 500 foci were used to determine this value. Dose curves for each compound were then derived and used to calculate a corresponding IC50 value.
Two stable cell lines, 1A7-1 and 1B7-11 were mixed equally and seeded into poly-D-lysine black-wall 96-well plates (Corning) at a density of 20,000 cells/well and incubated for 24 hours at 37 °C in a 5% CO2 atmosphere. […] Green (AG), red (MR) and blue (Hoechst33342) or far-red (Draq5) fluorescence images were used to monitor p53-MDM2, p53-MDM4 and nuclei, respectively. […] To remove dead cells from analysis, only cells with a “nuclei roundness” score of more than 0.75 were counted. FLUOPPI values were calculated by dividing the total green or red fluorescence intensity of puncta by the number of AG-positive nuclei or MR-positive nuclei, respectively. […]

Another data set concerns p53:Mdm2 interaction. To be noted: read-out: IC50, fluorescence polarization assay; cited from earlier work.
The target of data set [3] is T2, Mdm4:p53 (Homo sapiens, UniProt O15151).
T2 sequence (O15151 1-490): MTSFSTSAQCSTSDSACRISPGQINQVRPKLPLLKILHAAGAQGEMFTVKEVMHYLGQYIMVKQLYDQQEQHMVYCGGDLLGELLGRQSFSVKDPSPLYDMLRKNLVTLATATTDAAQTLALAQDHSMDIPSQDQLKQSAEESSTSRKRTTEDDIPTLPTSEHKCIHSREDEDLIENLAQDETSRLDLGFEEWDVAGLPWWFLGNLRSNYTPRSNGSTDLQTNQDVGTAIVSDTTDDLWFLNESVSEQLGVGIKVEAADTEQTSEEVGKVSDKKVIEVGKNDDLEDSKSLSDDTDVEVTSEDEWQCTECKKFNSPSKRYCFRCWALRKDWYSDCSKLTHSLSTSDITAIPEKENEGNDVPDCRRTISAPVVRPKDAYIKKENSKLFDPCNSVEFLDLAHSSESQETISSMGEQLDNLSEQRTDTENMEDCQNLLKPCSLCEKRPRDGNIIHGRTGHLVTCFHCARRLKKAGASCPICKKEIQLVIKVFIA
The experiment in a line: NanoBIT Mdm4:p53 PPI assay (transiently transfected CHO-K1 cells). Type of data set: cell-based. To be noted: NanoBIT Mdm4:p53 (IC50, µM), small molecules, 10% (v/v) FCS.
Procedure: When LgBiT and SmBiT are optimally fused to two interacting proteins, in this case full-length Mdm2 and full-length p53, they will be brought sufficiently close to each other that they will reform the active luciferase and generate a luminescence signal.
For transient transfection experiments, 24 hours prior to transfection CHO cells were seeded at a cell density of 300,000 or 1200,000 cells respectively per well of a 6 well plate (ThermoFisher Scientific). […] After a 24 hour incubation, medium was removed and cells were washed with PBS saline. Transfected CHO-1 cells were trypsinised and re-suspended in Opti-MEM media with 0% FCS. […] 25 μl of a 20-fold dilution of Nano-Glo live cell substrate (Promega) in Nano-Glo dilution buffer (PROMEGA) was added to each well and the plate shaken for 1 min at 22 °C and luminescence assessed after additional 50 minutes as described previously[43]. All luminescence assay were carried out in triplicate and luciferase activity for each well was measured by Envision Multilabel plate reader (PerkinElmer). […]
Curve-fitting was carried out using Prism 4.0 (GraphPad). a was always constrained to the experimental value determined using the 1% DMSO (v/v) experimental control. After curve fitting the value determined for d was then verified to be in close agreement with the plateau of the titration.

In the next data set the target is T3, ASH-p53:AG-Mdm2 (Homo sapiens, UniProt Q00987).
T3 construct: all eight possible combinations of p53 (1–70) and Mdm2 (1–119) were fused
Put plainly: Reversibility of FLUOPPI foci, transiently transfected ASH-p53:AG-Mdm2 CHO-K1 cells. Format: cell-based.

Data set [4] deals with CHO-K1 cells.
In data set [5] the test system is CHO-K1 cells. Put plainly: cells. To be noted: Cricetulus griseus, read-out: Viability (IC50, µM).
Where [6] appears, read: CHO-K1, 1 h, read-out: LDH Release (EC50, µM).

“Also recorded” adds a separate entry of the source. Like-named read-outs stand apart in the source and are kept apart here.

T3 sequence (Q00987 1-119, looked up): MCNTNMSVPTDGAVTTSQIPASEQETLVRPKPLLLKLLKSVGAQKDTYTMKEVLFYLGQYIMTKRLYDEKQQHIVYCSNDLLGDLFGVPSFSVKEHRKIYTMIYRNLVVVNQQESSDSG
Procedure for ASH-p53:AG-Mdm2: All 8 possible interactions pairs for the Mdm2:p53 PPI were then co-expressed in CHO-K1 cells and then analysed for foci formation 24 hours post-transfection (Fig. 1B). To eliminate the possibility of non-specific interactions between the expression constructs giving rise to foci formation, negative control experiments were performed between the AG fluorescent tagged constructs and the non-fluorescent oligomerizing tag (ASH) by itself (Fig. 1C).
24 hours prior to transfection CHO-K1 cells were seeded at a cell density of 800,000 cells respectively per well of a 6 well plate (ThermoFisher Scientific). […] After a 24 hour incubation, medium was removed and cells were washed with PBS saline. Transfected CHO-K1 cells were trypsinised and re-suspended in Nutrient Mixture F-12 Ham (Ham's F-12) media (Sigma-Aldrich) supplemented with 10% FCS. Cells were then spun down at 1000 rpm for 5 minutes at room temperature. Supernatant was then discarded and cells re-suspended to a density of 200,000 cells per ml in Ham's F-12 media supplemented with 10% FCS. 100 μl of the resulting cell suspension was added to the wells of a black clear bottom 96-well plate. After a 24 hours incubation, the cell medium was replaced with fresh Ham's F-12 medium containing the indicated concentration of small molecule or stapled peptide and the stated FCS concentration. Final concentration of DMSO was 1% (v/v).

One may read the IC50 as the concentration that gives 50% inhibition. As for `CC(C)(C)C[C@@H]1N[C@@H](C(=O)N[C@H]2CC[C@H](O)CC2)[C@H](c2cccc(Cl)c2F)[C@]12C(=O)Nc1cc(Cl)ccc12` [MI-773], the EC50 with CHO-K1 cells [1] (setting [6]) is 30 ± 6.2 µM; in the data set with CHO-K1 cells [1] (CHO-K1, 4 h, read-out: Normalized LDH release, value printed beside curve) it was 30.6 ± 6.2 µM. Besides, at Mdm4:p53 [2], the “inhibition of the p53:Mdm4 FLUOPPI PPI (in words)” value was “negligible effect”. Moreover, the IC50 is 0.00088 µM in the data set on p53:Mdm2 interaction, 10.2 ± 1.6 µM against Mdm4:p53 [3] (1 hour treatment) and 2.7 µM on Mdm4:p53 [3] (24 hour treatment).
As for `COc1ccc(C2=N[C@@H](c3ccc(Cl)cc3)[C@@H](c3ccc(Cl)cc3)N2C(=O)N2CCNC(=O)C2)c(OC(C)C)c1` [Nutlin 3A], in the data set with CHO-K1 cells [1] (setting [6]), the EC50 is 35.7 ± 6.2 µM. Further, the “disruption of Mdm2:p53 fluorescent foci (in words)” value at ASH-p53:AG-Mdm2 is given as “disrupted; also recorded: disruption of the fluorescent foci”. In the data set on CHO-K1 cells [4], the “effect on cellular viability (in words)” value is “significant decreases in cellular viability”. Besides, in the data set on CHO-K1 cells [4] (Chinese hamster), the “concentration with significant effects on cellular viability (arbitrarily defined as >25%)” value is listed as > 25 µM. The IC50 was 34 ± 7 µM in the data set on CHO-K1 cells [5] (CHO-K1, 1 h) and 28.5 µM with CHO-K1 cells [5] (CHO-K1, 24 h).
